Source: patent publication US20090312407A1, “Synthetic Flavonoids and Pharmaceutical Compositions and Therapeutic Methods of Treatment of Cancer and other Pathologies” (priority 2007, published 2009)
“And” between values parts separate entries of the source, which are not always exact repeats. Equal entries are not always repeated. “Also recorded” adds a separate entry of the source. Where two headings read alike, the source gives them in different places.

What was measured:
Assay type in all cases: cell-based
MCF-7 cells = test: Cytotoxicity on MCF-7 cells; details: for % Inhibition / inhibition at 1 µg/mL / inhibition at 5 µg/mL / inhibition at 10 µg/mL / inhibition at 50 µg/mL: vs 2% DMSO; for inhibition at 1 µg/mL / inhibition at 5 µg/mL / inhibition at 10 µg/mL / inhibition at 50 µg/mL: Homo sapiens; for inhibition at 1 µg/mL: MCF7, 1 μg/ml; for inhibition at 5 µg/mL: MCF7, 5 μg/ml; for inhibition at 10 µg/mL: MCF7, 10 μg/ml; for inhibition at 50 µg/mL: MCF7, 50 μg/ml; for inhibitory activity / growth inhibition compared to AZT: MCF-7 cells, same conditions as AZT; for cytotoxic activities on MCF-7 cells: different drug concentrations
PC-3 cells = test: Cytotoxicity on PC-3 cells; details: for inhibitory activity / growth inhibition compared to AZT: PC-3 cells, same conditions as AZT
From the text: (§1) The purified and identified analogs were subjected to in vitro biological testing.

H-9 cells = test: Cytotoxicity on H-9 cells; details: for inhibitory activity / growth inhibition compared to AZT: H-9 cells, same conditions as AZT; for Cells (×10^4) Mean / Cells (×10^4): Table 3, 12-05 to 12-09/2005; for % Inhibition / inhibition at 1 µg/mL / inhibition at 5 µg/mL / inhibition at 10 µg/mL / inhibition at 50 µg/mL: vs 2% DMSO, Table 3; for inhibition at 1 µg/mL / inhibition at 5 µg/mL / inhibition at 10 µg/mL / inhibition at 50 µg/mL: Homo sapiens; for inhibition at 1 µg/mL: H9, 1 μg/ml; for inhibition at 5 µg/mL: H9, 5 μg/ml; for inhibition at 10 µg/mL: H9, 10 μg/ml; for inhibition at 50 µg/mL: H9, 50 μg/ml
From the text: as §1
These three congeners were further evaluated in H9 and PC3 cells. AZT was employed as a positive control in all of these experiments.

[1] = 5 μg/ml, single count, Table 17, 12-12 to 12-16/2005
[2] = single count, Table 17, read-out: % Inhibition
[3] = Table 17, read-out: % Inhibition Mean
[4] = single count, Table 6, read-out: % Inhibition
[5] = Table 6, read-out: % Inhibition Mean
[6] = single count, read-out: % Inhibition

With `COc1cc(C=CC(=O)c2cc(Cl)cc(Cl)c2O)cc(OC)c1OC` [CHCl 3M] the “Cells (×10^4)” value (MCF-7 cells; [1]) was 53.0 ×10^4.
`COc1cc(C=CC(=O)c2cc(C)cc([N+](=O)[O-])c2O)cc(OC)c1OC` (stereo in doubt) [CHNM 3M] was tested, and the “Cells (×10^4) Mean” value (MCF-7 cells; 1 μg/ml, Table 17, 12-12 to 12-16/2005) was 44.50 ×10^4, the “% Inhibition” value (MCF-7 cells; 1 μg/ml, single count, Table 17) was 11.62% and the “Cells (×10^4)” value (MCF-7 cells; 1 μg/ml, single count, Table 17, 12-12 to 12-16/2005) was 44.3 ×10^4 and 45.0 ×10^4. The “Cells (×10^4) Mean” value (MCF-7 cells; 5 μg/ml, Table 17, 12-12 to 12-16/2005) was 24.75 ×10^4, the “% Inhibition” value (MCF-7 cells; 5 μg/ml, single count, Table 17) was 52.86% and 51.88% and the “Cells (×10^4)” value (MCF-7 cells; [1]) was 25.8 ×10^4 and 24.0 ×10^4 and 24.5 ×10^4. The “Cells (×10^4) Mean” value (MCF-7 cells; 10 μg/ml, Table 17, 12-12 to 12-16/2005) was 4.92 ×10^4, the “% Inhibition” value (MCF-7 cells; 10 μg/ml, single count, Table 17) was 90.67% and the “Cells (×10^4)” value (MCF-7 cells; 10 μg/ml, single count, Table 17, 12-12 to 12-16/2005) was 5.0 ×10^4 and 4.8 ×10^4. For the same molecule, the “Cells (×10^4) Mean” value (MCF-7 cells; 50 μg/ml, Table 17, 12-12 to 12-16/2005) was 1.75 ×10^4, the “% Inhibition” value (MCF-7 cells; 50 μg/ml, single count, Table 17) was 96.07% and 97.05% and the “Cells (×10^4)” value (MCF-7 cells; 50 μg/ml, single count, Table 17, 12-12 to 12-16/2005) was 1.8 ×10^4 and 2.0 ×10^4 and 1.5 ×10^4. It also gave an inhibition at 1 µg/mL (MCF-7 cells; [2]) of 13.1%, an inhibition at 1 µg/mL (MCF-7 cells; [3]) of 12.6% and an inhibition at 5 µg/mL (MCF-7 cells; [2]) of 49.4%. For the same molecule, the inhibition at 5 µg/mL (MCF-7 cells; [3]) was 51.4%, the inhibition at 10 µg/mL (MCF-7 cells; [2]) was 90.2% and the inhibition at 10 µg/mL (MCF-7 cells; [3]) was 90.3%. The inhibition at 50 µg/mL (MCF-7 cells; [2]) was 96.6%, the inhibition at 50 µg/mL (MCF-7 cells; [3]) was 96.6% and the “inhibitory activity / growth inhibition compared to AZT” value (MCF-7 cells) was “much superior”. For the same molecule, the “cytotoxic activities on MCF-7 cells” value (MCF-7 cells) was “good cytotoxic activities”, the “inhibitory activity / growth inhibition compared to AZT” value (PC-3 cells) was “much superior” and the “inhibitory activity / growth inhibition compared to AZT” value (H-9 cells) was “much superior”.
With `Cc1cn([C@H]2C[C@H](N=[N+]=[N-])[C@@H](CO)O2)c(=O)[nH]c1=O` [AZT, reference compound] the “Cells (×10^4) Mean” value (MCF-7 cells; 1 μg/ml, Table 12, 9-12 to 9-16/2005) was 45.25 ×10^4, the “Cells (×10^4)” value (MCF-7 cells; 1 μg/ml, single count, Table 12, 9-12 to 9-16/2005) was 46.0 ×10^4 and 45.3 ×10^4 and 44.5 ×10^4 and the “Cells (×10^4) Mean” value (MCF-7 cells; 5 μg/ml, Table 12, 9-12 to 9-16/2005) was 28.58 ×10^4. For the same molecule, the “Cells (×10^4)” value (MCF-7 cells; 5 μg/ml, single count, Table 12, 9-12 to 9-16/2005) was 27.8 ×10^4 and 28.0 ×10^4, the “Cells (×10^4) Mean” value (MCF-7 cells; 10 μg/ml, Table 12, 9-12 to 9-16/2005) was 20.17 ×10^4 and the “Cells (×10^4)” value (MCF-7 cells; 10 μg/ml, single count, Table 12, 9-12 to 9-16/2005) was 17.5 ×10^4 and 21.5 ×10^4. The “Cells (×10^4) Mean” value (PC-3 cells; 5 μg/ml, Table 7, 11-11 to 11-17/2005) was 71.33 ×10^4 and the “% Inhibition” value (PC-3 cells; 10 μg/ml, single count, vs 2% DMSO, Table 7) was 38.73%.
`COc1ccc(C=CC(=O)c2cc(Cl)cc(Cl)c2O)cc1OC` (stereo in doubt) [CHCl 2M] was tested, and the “Cells (×10^4) Mean” value (MCF-7 cells; 1 μg/ml, Table 6, 11-14 to 11-18/2005) was 49.42 ×10^4, the “% Inhibition” value (MCF-7 cells; 1 μg/ml, single count, Table 6) was 16.14% and 13.54% and the “Cells (×10^4)” value (MCF-7 cells; 1 μg/ml, single count, Table 6, 11-14 to 11-18/2005) was 49.8 ×10^4 and 48.5 ×10^4 and 50.0 ×10^4. The “Cells (×10^4) Mean” value (MCF-7 cells; 5 μg/ml, Table 6, 11-14 to 11-18/2005) was 32.33 ×10^4, the “% Inhibition” value (MCF-7 cells; 5 μg/ml, single count, Table 6) was 45.53% and 42.07% and the “Cells (×10^4)” value (MCF-7 cells; 5 μg/ml, single count, Table 6, 11-14 to 11-18/2005) was 32.0 ×10^4 and 31.5 ×10^4 and 33.5 ×10^4. The “Cells (×10^4) Mean” value (MCF-7 cells; 10 μg/ml, Table 6, 11-14 to 11-18/2005) was 10.42 ×10^4, the “% Inhibition” value (MCF-7 cells; 10 μg/ml, single count, Table 6) was 81.41% and 81.84% and the “Cells (×10^4)” value (MCF-7 cells; 10 μg/ml, single count, Table 6, 11-14 to 11-18/2005) was 10.0 ×10^4 and 10.8 ×10^4 and 10.5 ×10^4. For the same molecule, the “Cells (×10^4) Mean” value (MCF-7 cells; 50 μg/ml, Table 6, 11-14 to 11-18/2005) was 0.75 ×10^4, the “% Inhibition” value (MCF-7 cells; 50 μg/ml, single count, Table 6) was 99.14% and the “Cells (×10^4)” value (MCF-7 cells; 50 μg/ml, single count, Table 6, 11-14 to 11-18/2005) was 1.0 ×10^4 and 0.5 ×10^4 and 0.8 ×10^4. It also gave an inhibition at 1 µg/mL (MCF-7 cells; [4]) of 14%, an inhibition at 1 µg/mL (MCF-7 cells; [5]) of 14.6% and an inhibition at 5 µg/mL (MCF-7 cells; [4]) of 44.7%. For the same molecule, the inhibition at 5 µg/mL (MCF-7 cells; [5]) was 44.1%, the inhibition at 10 µg/mL (MCF-7 cells; [4]) was 82.7% and the inhibition at 10 µg/mL (MCF-7 cells; [5]) was 82%. The inhibition at 50 µg/mL (MCF-7 cells; [4]) was 98.3%, the inhibition at 50 µg/mL (MCF-7 cells; [5]) was 98.7% and the “inhibitory activity / growth inhibition compared to AZT” value (MCF-7 cells; listed as CHCI2M) was “much superior; also recorded: as good or somewhat better”. The “cytotoxic activities on MCF-7 cells” value (MCF-7 cells) was “good cytotoxic activities”, the “inhibitory activity / growth inhibition compared to AZT” value (PC-3 cells; listed as CHCI2M) was “much superior; also recorded: as good or somewhat better” and the “Cells (×10^4) Mean” value (H-9 cells; 1 μg/ml) was 42.25 ×10^4. For the same molecule, the “% Inhibition” value (H-9 cells; 1 μg/ml, single count) was 15.42%, the “Cells (×10^4)” value (H-9 cells; 1 μg/ml, single count) was 42.0 ×10^4 and 42.3 ×10^4 and 42.5 ×10^4 and the “Cells (×10^4) Mean” value (H-9 cells; 5 μg/ml) was 24.00 ×10^4. For the same molecule, the “% Inhibition” value (H-9 cells; 5 μg/ml, single count) was 52.74% and 51.74%, the “Cells (×10^4)” value (H-9 cells; 5 μg/ml, single count) was 24.0 ×10^4 and 23.8 ×10^4 and 24.3 ×10^4 and the “Cells (×10^4) Mean” value (H-9 cells; 10 μg/ml) was 12.92 ×10^4. For the same molecule, the “% Inhibition” value (H-9 cells; 10 μg/ml, single count) was 77.11% and 71.64%, the “Cells (×10^4)” value (H-9 cells; 10 μg/ml, single count) was 13.0 ×10^4 and 11.5 ×10^4 and 14.3 ×10^4 and the “Cells (×10^4) Mean” value (H-9 cells; 50 μg/ml) was 4.50 ×10^4. For the same molecule, the “% Inhibition” value (H-9 cells; 50 μg/ml, single count) was 90.05%, the “Cells (×10^4)” value (H-9 cells; 50 μg/ml, single count) was 4.0 ×10^4 and 4.5 ×10^4 and 5.0 ×10^4 and the “inhibitory activity / growth inhibition compared to AZT” value (H-9 cells; listed as CHCI2M) was “much superior; also recorded: as good or somewhat better”. The inhibition at 1 µg/mL (H-9 cells; [6]) was 16.4%, the inhibition at 1 µg/mL (H-9 cells; read-out: % Inhibition Mean) was 15.9% and the inhibition at 5 µg/mL (H-9 cells; [6]) was 52.2%. It also gave an inhibition at 5 µg/mL (H-9 cells; read-out: % Inhibition Mean) of 52.2%, an inhibition at 10 µg/mL (H-9 cells; [6]) of 74.1% and an inhibition at 10 µg/mL (H-9 cells; read-out: % Inhibition Mean) of 74.3%. For the same molecule, the inhibition at 50 µg/mL (H-9 cells; [6]) was 92% and the inhibition at 50 µg/mL (H-9 cells; read-out: % Inhibition Mean) was 91%.
